TGI and GI50 data for ten compounds are collected here from PubChem BioAssay (NCI).

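A five-concentration, 48-hour dose response in 96-well plates underlies each endpoint, interpolated linearly between surrounding concentrations. GI50 marks 50% less growth. TGI is the concentration that stops growth completely.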

Common to all, as to test: NCI anticancer screen, dose series, 48 h
The test system of assay [1] is HS 578T breast.
In assay [2] the test system is OVCAR-4 ovarian.
Assay [3] relates to SK-MEL-2 melanoma.
The test system of assay [4] is SNB-75 CNS.
For assay [5], the system named is MDA-MB-435.
The subject of assay [6] is OVCAR-8 ovarian.
Assay [7] relates to T-47D breast.
Assay [8] deals with HCC-2998 colon.

Regarding `CC1(C)OC1COc1c2occc2cc2ccc(=O)oc12` (centres undefined), the TGI in assay [1], in assay [2], in assay [3], in assay [4], in assay [5] and in assay [6] was > 100 µM in each case. Moreover, the TGI in assay [7] and in assay [8] was > 100 µM throughout.
As to `C[C@]12CCC3c4ccc(O)cc4CCC3C1CC[C@@]2(O)CNC(=O)/C=C/c1ccc(O)c(O)c1` (some centres undefined), the GI50 is 6.24 µM in assay [1]; 26.4 µM in assay [2]; 13.5 µM in assay [3]; 13.2 µM in assay [4]; 3.01 µM in assay [5]; 2.65 µM in assay [6]. Also, the GI50 was 6.61 µM in assay [7] and 10.8 µM in assay [8]. The TGI worked out at 30.8 µM in assay [1]; 81.3 µM in assay [2]; 32.2 µM in assay [3]; 29 µM in assay [4]; 8.07 µM in assay [5]; 17.1 µM in assay [6]. Besides, the TGI came out at 23.9 µM in assay [7] and 23.4 µM in assay [8].
Regarding `COCCOc1ccc(-c2nc3ccc(-c4nc5ccc(N6CCN(C)CC6)cc5[nH]4)cc3[nH]2)cc1`, the GI50 in assay [1] was 2.94 µM; in assay [2], 0.313 µM; in assay [3], 1.64 µM; in assay [4], 0.486 µM; in assay [5], 0.621 µM; in assay [6] it was 0.931 µM. The GI50 in assay [7] was 1 µM; in assay [8], 1.78 µM. In addition, the TGI in assay [1] was 15.9 µM; in assay [2] it was 3 µM; in assay [3] it was 3.59 µM; in assay [4], 3.14 µM; in assay [5] it was 2.14 µM; in assay [6], 23.4 µM. Moreover, the values for the TGI in assay [7] and in assay [8] were 9.09 µM and 3.77 µM, respectively.
`CN1CC[C@@H](NC(=O)Nc2ccc(C#N)cc2)C[C@@H]1c1nc2ccccc2[nH]1`: the GI50 in assay [1] was > 100 µM; in assay [2] it was 100 µM; in assay [3], > 100 µM; in assay [4] it was > 73.2 µM; in assay [5], > 100 µM; in assay [6] it was > 100 µM. The GI50 in assay [7] was > 70.4 µM; in assay [8] it was > 41.3 µM. Besides, the TGI in assay [1], in assay [2], in assay [3], in assay [4], in assay [5] and in assay [6] was > 100 µM each time. The TGI was > 100 µM in assay [7] and > 56.4 µM in assay [8].
For `Nc1c(C(=O)Nc2cccc(C(F)(F)F)c2)sc2nc3c(cc12)CCCCC3`, the GI50 was 3.8 µM in assay [1]; 1.21 µM in assay [2]; 3.16 µM in assay [3]; 1.74 µM in assay [4]; 2.53 µM in assay [5]; 3.49 µM in assay [6]. Also, the GI50 in assay [7] is 1.55 µM; in assay [8], 31 µM. The TGI in assay [1] was 30.4 µM; in assay [2], 3.9 µM; in assay [3] it was 19.3 µM; in assay [4], 3.93 µM; in assay [5], 63.1 µM; in assay [6] it was 19.8 µM. Moreover, the TGI in assay [7] was 8.31 µM; in assay [8], > 100 µM.
In the case of `O=C(/C(=C/c1ccc([N+](=O)[O-])cc1)SCc1ccccc1)c1ccc(Cl)cc1`, the GI50 in assay [1] is 2.4 µM; in assay [2] it was 3.24 µM; in assay [3] it was 15.3 µM; in assay [4] it was 16 µM; in assay [5] it was 3.22 µM; in assay [6] it was 3.98 µM. The figures for the GI50 in assay [7] and in assay [8] were 2.41 µM and 1.97 µM, respectively. Moreover, the TGI in assay [1] stood at 8.2 µM; in assay [2], 13.3 µM; in assay [3] it was 32.5 µM; in assay [4] it was 35.7 µM; in assay [5], 11.4 µM; in assay [6], 15.2 µM. In addition, the figures for the TGI in assay [7] and in assay [8] were 7.46 µM and 3.89 µM, respectively.
`Nc1ccccc1SC(CC(=O)c1ccccc1)c1cccc([N+](=O)[O-])c1` (centres undefined): the GI50 was 21.5 µM in assay [1]; 14.6 µM in assay [2]; 20.6 µM in assay [3]; 13.6 µM in assay [4]; 16.3 µM in assay [5]; 14.9 µM in assay [6]. For the same compound, the results for the GI50 in assay [7] and in assay [8] were 12.1 µM and 17.3 µM, respectively. Also, the TGI in assay [1] worked out at 57.3 µM; in assay [2], 27.8 µM; in assay [3], 35.8 µM; in assay [4], 26.7 µM; in assay [5], 30.4 µM; in assay [6], 28.5 µM. The TGI in assay [7] came to 36.2 µM; in assay [8], 31.3 µM.
As for `COc1ccc2nc3cc(Cl)ccc3c(NCCNCC(C)O)c2c1` (centres undefined), the GI50 is 4.47 µM in assay [1]; 1.57 µM in assay [2]; 2.08 µM in assay [3]; 1.9 µM in assay [4]; 1.51 µM in assay [5]; 1.94 µM in assay [6]. In addition, the values for the GI50 in assay [7] and in assay [8] were 2.16 µM and 1.38 µM, respectively. The TGI in assay [1] came to 21.3 µM; in assay [2], 4.8 µM; in assay [3] it was 4.26 µM; in assay [4] it was 8.71 µM; in assay [5] it was 3.1 µM; in assay [6], 7.65 µM. In addition, the TGI in assay [7] turned out to be 6.72 µM; in assay [8] it was 2.94 µM.
Take `CCN(Cc1ccc(F)cc1)c1cc(Cl)c(CO)c(Cl)c1`: the GI50 was 12.2 µM in assay [1]; 10.7 µM in assay [2]; 15 µM in assay [3]; 12.8 µM in assay [4]; 17.9 µM in assay [5]; 14.3 µM in assay [6]. Moreover, the GI50 in assay [7] is 7.47 µM; in assay [8], 13.9 µM. The TGI is 33.4 µM in assay [1]; 22.5 µM in assay [2]; 29.5 µM in assay [3]; 25.9 µM in assay [4]; 37 µM in assay [5]; 31.3 µM in assay [6]. Also, the TGI in assay [7] came out at 26.5 µM; in assay [8], 28.1 µM.
Take `CC(=O)CC(OC(C)=O)C1=CCC2C(CC1C)OC(=O)C2C` (centres undefined): the TGI in assay [1], in assay [2], in assay [3], in assay [4], in assay [5] and in assay [6] was > 100 µM throughout. Moreover, the TGI in assay [7] and in assay [8] was > 100 µM in each case.
